From patent US20230143545A1, “Treating Pulmonary Inflammatory Disease Associated With Covid-19 By Administering Resiniferatoxin” (Sorrento Therapeutics, Inc., priority 2020, published 2023)
Entries after “also recorded” stand apart in the source; their conditions may differ.

What was measured:
Bleo-exposed rats [1] = assay: Lung plasma extravasation (Evans Blue) in rat model of bleomycin lung injury; conditions: day 7
Method: (§1) Rat Model of Lung Injury. Rats were randomized into three groups and evaluated at 1-week post-instillation as follows: sham rats, bleomycin (Bleo)-exposed rats with saline (epidural or intra-stellate injection), and Bleo-exposed rats with RTX (epidural or intra-stellate injection). Bleo (2.5 mg/kg, —0.15 mL) was instilled intra-tracheally to the lungs under 3% isoflurane anesthesia. Sham control rats underwent intra-tracheal instillation of saline. Animals were treated with RTX or vehicle (Veh; phosphate buffered saline) by either the epidural T1-T4 DRGs route (6 μg/ml, 10 μl/per ganglia) or intra-stellate ganglia administration (50μg/ml, 5 μl/per side) 3 days following Bleo delivery (FIG. 1A-B).
Epidural Application of RTX. The upper thoracic spinal afferents were ablated by epidural application of RTX. […] Briefly, rats were anesthetized using 2%-3% isoflurane:oxygen mixture. Rats were placed in the prone position and a small midline incision was made in the region of the T13-L1 thoracic vertebrae. Following dissection of the superficial muscles, two small holes (approximately 2 mm×2 mm) were made in the left and right sides of T13 vertebrae. A polyethylene catheter (PE-10) was inserted into the subarachnoid space via one hole and gently advanced about 4 cm approximating the T1 level. The upper thoracic sympathetic afferent ganglia were ablated by injecting resiniferatoxin (RTX; Sigma Aldrich), an ultra-potent agonist of the TRPV1 receptor into the subarachnoid space via the catheter. RTX (1 mg; Sigma Aldrich) was dissolved in a 1:1:8 mixture of ethanol, Tween 80 (Sigma-Aldrich), and isotonic saline. The first injection of RTX (6 μg/ml, 10 ul) was made at a very slow speed (˜1 minute) to minimize the diffusion of the drug. The catheter was then pulled back to T2, T3 and T4, respectively to perform serial injections (10 μl/each) at each segment. The catheter was withdrawn and the same injections were repeated on the other side. Silicone gel was used to seal the hole in the T13 vertebra. […]
Lung Plasma Extravasation, Tissue Extraction, and Quantification of Evans Blue. […]

Bleo-exposed rats [2] = assay: Arterial blood gas analysis in rat model of bleomycin lung injury; conditions: intra-stellate RTX at day 3 after Bleo; day 7; vs. Bleo+Veh
Method: as §1
Intra-stellate Injection of RTX Rats were anesthetized using 2%-3% isoflurane:oxygen mixture. […] The skin from the rostral end of the sternum to the level of third rib was incised. Portions of the superficial and deep pectoral muscles and the first intercostal muscles were cut and dissected. To localize the left or right stellate ganglion, the left or right precava vein were separated with a hooked glass or steel rod laterally away from the brachiocephalic artery to expose the internal thoracic artery and the costocervical artery, which are descending branches of the right subclavian artery. Stellate ganglia and ansa subclavia are located medially to the origins of the internal thoracic and costocervical arteries. Then, RTX (5 μl, 50 mg/ml) was injected into the ganglia with a 5-μl Hamilton syringe (Microliter #95, Hamilton, Reno, Nev., USA.) over 30 s bilaterally. An image of this procedure is shown in FIG. 2A-B. Following these maneuvers, the thorax between the first and second intercostal spaces was closed with continuous 4-0 Dexon II coated braided absorbable polyglycolic acid suture and the skin was closed with 3-0 polypropylene suture and the chest evacuated. […]
(§2) Statistics. Statistical evaluation was analyzed using GraphPad Prism (GraphPad Software, San Diego, Calif. Version 8). Differences between treatments were determined using a Mixedeffects model for repeated-measures ANOVA. […]

Bleo-exposed rats [3] = assay: Plasma cytokine ELISA in rat model of bleomycin lung injury; type: in vivo; conditions: epidural RTX at day 3 after Bleo; day 7
Method: Rat Model of Lung Injury.
Epidural Application of RTX.
Cytokine Assays. […] Organ weights were evaluated post-mortem.

Bleo-exposed rats [4] = assay: Body weight and organ weights post-mortem in rat model of bleomycin lung injury
Method: as §1
Intra-stellate Injection of RTX Rats were anesthetized using 2%-3% isoflurane:oxygen mixture. […] The skin from the rostral end of the sternum to the level of third rib was incised. Portions of the superficial and deep pectoral muscles and the first intercostal muscles were cut and dissected. To localize the left or right stellate ganglion, the left or right precava vein were separated with a hooked glass or steel rod laterally away from the brachiocephalic artery to expose the internal thoracic artery and the costocervical artery, which are descending branches of the right subclavian artery. Stellate ganglia and ansa subclavia are located medially to the origins of the internal thoracic and costocervical arteries. Then, RTX (5 μl, 50 mg/ml) was injected into the ganglia with a 5-μl Hamilton syringe (Microliter #95, Hamilton, Reno, Nev., USA.) over 30 s bilaterally. […]
as §2

Bleo-exposed rats [5] = assay: Lung tissue cytokine ELISA in rat model of bleomycin lung injury; conditions: day 7
Method: as §1
Epidural Application of RTX. The upper thoracic spinal afferents were ablated by epidural application of RTX. […] Briefly, rats were anesthetized using 2%-3% isoflurane:oxygen mixture. Rats were placed in the prone position and a small midline incision was made in the region of the T13-L1 thoracic vertebrae. Following dissection of the superficial muscles, two small holes (approximately 2 mm×2 mm) were made in the left and right sides of T13 vertebrae. A polyethylene catheter (PE-10) was inserted into the subarachnoid space via one hole and gently advanced about 4 cm approximating the T1 level. The upper thoracic sympathetic afferent ganglia were ablated by injecting resiniferatoxin (RTX; Sigma Aldrich), an ultra-potent agonist of the TRPV1 receptor into the subarachnoid space via the catheter. RTX (1 mg; Sigma Aldrich) was dissolved in a 1:1:8 mixture of ethanol, Tween 80 (Sigma-Aldrich), and isotonic saline. The first injection of RTX (6 μg/ml, 10 ul) was made at a very slow speed (˜1 minute) to minimize the diffusion of the drug. The catheter was then pulled back to T2, T3 and T4, respectively to perform serial injections (10 μl/each) at each segment. The catheter was withdrawn and the same injections were repeated on the other side. Silicone gel was used to seal the hole in the T13 vertebra. The skin overlying the muscle were closed with a 3-0 polypropylene simple interrupted suture, and betadine was applied to the wound. For post-procedure pain management, buprenorphine (0.05 mg/kg) was subcutaneously injected immediately after surgery and twice daily for 2 days.
Intra-stellate Injection of RTX Rats were anesthetized using 2%-3% isoflurane:oxygen mixture. […] The skin from the rostral end of the sternum to the level of third rib was incised. Portions of the superficial and deep pectoral muscles and the first intercostal muscles were cut and dissected. To localize the left or right stellate ganglion, the left or right precava vein were separated with a hooked glass or steel rod laterally away from the brachiocephalic artery to expose the internal thoracic artery and the costocervical artery, which are descending branches of the right subclavian artery. Stellate ganglia and ansa subclavia are located medially to the origins of the internal thoracic and costocervical arteries. Then, RTX (5 μl, 50 mg/ml) was injected into the ganglia with a 5-μl Hamilton syringe (Microliter #95, Hamilton, Reno, Nev., USA.) over 30 s bilaterally. […] Betadine was applied to the wound and the rats were allowed to recover from the anesthesia. […]
Cytokine Assays. Lung and plasma cytokines were measured with R&D cytokine ELISA assays (Minneapolis, Minn., USA) according to the manufacturer's instructions.

[6] = intra-stellate RTX at day 3 after Bleo, day 7, vs. Bleo+Veh
[7] = epidural RTX at day 3 after Bleo, vs. Bleo
[8] = stellate RTX at day 3 after Bleo, vs. Bleo+Veh

C=C(C)[C@]12C[C@@H](C)[C@@]34O[C@](Cc5ccccc5)(O[C@@H]1[C@@H]3C=C(COC(=O)Cc1ccc(O)c(OC)c1)C[C@]1(O)C(=O)C(C)=C[C@@H]41)O2 [RTX, resiniferatoxin]
Plasma extravasation (Evans Blue areas / concentration in lung) (Bleo-exposed rats [1]; epidural RTX T1-T4 (6 μg/ml, 10 μl/per ganglia) at day 3 after Bleo 2.5 mg/kg intra-tracheal, vs. Bleo): reduced
Plasma extravasation (Evans Blue dye in the lung) (Bleo-exposed rats [1]; intra-stellate RTX (50μg/ml, 5 μl/per side) at day 3 after Bleo, vs. Bleo+Veh): marked reduction; also recorded: reduced
Arterial pCO2 (elevated by Bleo) (Bleo-exposed rats [2]): reversed these changes
Arterial pO2 (reduced by Bleo) (Bleo-exposed rats [2]): reversed these changes
Arterial sO2 (reduced by Bleo) (Bleo-exposed rats [2]): reversed these changes
Plasma cytokine levels in response to Bleo (Bleo-exposed rats [3]): reduced
Ratio of WLW to BW (Bleo-exposed rats [4]; [6]): significantly reduced
Wet lung weight (WLW) (Bleo-exposed rats [4]; [6]): significantly reduced
Body weight (Bleo-exposed rats [4]; stellate ganglia administration of RTX in rats with lung injury): improved
Lung tissue IFNγ level (Bleo-exposed rats [5]; [7]): reduced
Lung tissue IL-1β level (Bleo-exposed rats [5]; [7]): reduced
Lung tissue IL-6 level (Bleo-exposed rats [5]; [7]): reduced
Lung tissue IL-1β level (Bleo-exposed rats [5]; [8]): significantly reduced
Lung tissue IL-6 level (Bleo-exposed rats [5]; [8]): significantly reduced
